Counter-ions that a name gives are not always drawn.

One may read the IC90 as the point of the concentration-response curve where the effect stands at 90%.

For the first test, the system named is Acinetobacter baumannii ATCC17961. Nature of the test: Antimicrobial susceptibility testing: 90% growth inhibitory concentration (IC90) determination. As to conditions: Acinetobacter baumannii ATCC17961; Iso-Sensitest broth; growth by OD 600 nm over 16 h; 90% growth inhibitory concentration; read-out: ATCC 17961 IC90. The test is classed as cell-based. As for the experimental part:
Antimicrobial Susceptibility Testing:
90% Growth Inhibitory Concentration (IC90) Determination
The in vitro antimicrobial activity of the compounds was determined according to the following procedure:
The assay used a 10-points Iso-Sensitest broth medium to measure quantitatively the in vitro activity of the compounds against Acinetobacter baumannii ATCC17961.
Stock compounds in DMSO were serially twofold diluted (e.g. range from 50 to 0.097 μM final concentration) in 384 wells microtiter plates and inoculated with 49 μl the bacterial suspension in Iso-Sensitest medium to have a final cell concentration of ˜5×10^(5) CFU/ml in a final volume/well of 50 ul/well. Microtiter plates were incubated at 35±2° C.
Bacterial cell growth was determined with the measurement of optical density at λ=600 nm each minutes over a time course of 16 h. Growth inhibition was calculated during the logarithmic growth of the bacterial cells with determination of the concentration inhibiting 50% (IC50) and 90% (IC90) of the growth.
Table 1 provides the 90% growth inhibitory concentrations (IC90) in micromoles per liter of the compounds of present invention obtained against the strain Acinetobacter baumannii ATCC17961.
For `Cn1c(-c2cn(-c3ccc(N)cn3)nc2C(F)(F)F)cnc1C(=O)Nc1ccc(C(=O)N2CCN(C(=O)[C@@H]3[C@@H](Oc4ccc(N)cn4)CC[N+]3(C)C)CC2)c(Cl)c1` [Example D14, N-[4-[4-[(2S,3S)-3-[(5-amino-2-pyridyl)oxy]-1,1-dimethyl-pyrrolidin-1-ium-2-carbonyl]piperazine-1-carbonyl]-3-chloro-phenyl]-5-[1-(5-amino-2-pyridyl)-3-(trifluoromethyl)pyrazol-4-yl]-1-methyl-imidazole-2-carboxamide; formate], the IC90 was determined as 0.55 µM. The same measure, in the same setting: next, `Cn1c(-c2cn(-c3ccc(N)cn3)nc2C(F)(F)F)cnc1C(=O)Nc1ccc(C(=O)N2CCN(C(=O)[C@@H]3CC(O)CC[N+]3(C)C)CC2)c(Cl)c1` (stereo partly drawn) [Example D15, 5-[1-(5-Amino-2-pyridyl)-3-(trifluoromethyl)pyrazol-4-yl]-N-[3-chloro-4-[4-[(2S)-4-hydroxy-1,1-dimethyl-piperidin-1-ium-2-carbonyl]piperazine-1-carbonyl]phenyl]-1-methyl-imidazole-2-carboxamide;formate]: 0.55 µM; `Cn1c(-c2cn(-c3cnc(N)cn3)nc2C(F)(F)F)cnc1C(=O)Nc1ccc(C(=O)N2CCN(C(=O)C3CC[N+](C)(C)CC3)CC2)c(Cl)c1` [Example D16, 5-[1-(5-aminopyrazin-2-yl)-3-(trifluoromethyl)pyrazol-4-yl]-N-[3-chloro-4-[4-(1,1-dimethylpiperidin-1-ium-4-carbonyl)piperazine-1-carbonyl]phenyl]-1-methyl-imidazole-2-carboxamide]: 0.32 µM. On the same count and under the same terms, next, `Cn1c(-c2cn(-c3ccc(N)cn3)nc2C(F)(F)F)cnc1C(=O)Nc1ccc(C(=O)N[C@H]2[C@@H]3CN(C(=O)[C@@H]4C[C@@H](O)C[N+]4(C)C)C[C@@H]32)c(Cl)c1` [Example D17, 5-[1-(5-amino-2-pyridyl)-3-(trifluoromethyl)pyrazol-4-yl]-N-[3-chloro-4-[[(exo)-3-[(2S,4R)-4-hydroxy-1,1-dimethyl-pyrrolidin-1-ium-2-carbonyl]-3-azabicyclo[3.1.0]hexan-6-yl]carbamoyl]phenyl]-1-methyl-imidazole-2-carboxamide]: 0.3 µM. On the same count and under the same terms, the figure for `COCCNc1ccc(-n2cc(-c3cnc(C(=O)Nc4ccc(C(=O)N5CCN(C(=O)C6CC[N+](C)(C)CC6)CC5)c(Cl)c4)n3C)c(C(F)(F)F)n2)nc1` [Example E2, N-[3-chloro-4-[4-(1,1-dimethylpiperidin-1-ium-4-carbonyl)piperazine-1-carbonyl]phenyl]-5-[1-[5-(2-methoxyethylamino)-2-pyridyl]-3-(trifluoromethyl)pyrazol-4-yl]-1-methyl-imidazole-2-carboxamide; formate] is 0.3 µM; for `CCNc1ccc(-n2cc(-c3cnc(C(=O)Nc4ccc(C(=O)N5CCN(C(=O)C6CC[N+](C)(C)CC6)CC5)c(Cl)c4)n3C)c(C(F)(F)F)n2)nc1` [Example E3, N-[3-chloro-4-[4-(1,1-dimethylpiperidin-1-ium-4-carbonyl)piperazine-1-carbonyl]phenyl]-5-[1-[5-(ethylamino)-2-pyridyl]-3-(trifluoromethyl)pyrazol-4-yl]-1-methyl-imidazole-2-carboxamide; formate] it is 0.39 µM; for `CNc1ccc(-n2cc(-c3cnc(C(=O)Nc4ccc(C(=O)N5CCN(C(=O)C[N+]6(C)CCC(O)C6)CC5)c(Cl)c4)n3C)c(C(F)(F)F)n2)nc1` (stereo not drawn) [Example E5, N-[3-chloro-4-[4-[2-(3-hydroxy-1-methyl-pyrrolidin-1-ium-1-yl)acetyl]piperazine-1-carbonyl]phenyl]-1-methyl-5-[1-[5-(methylamino)-2-pyridyl]-3-(trifluoromethyl)pyrazol-4-yl]imidazole-2-carboxamide; formate] it is 0.22 µM. `CNc1ccc(-n2cc(-c3cnc(C(=O)Nc4ccc(C(=O)N5CCN(C(=O)[C@@H]6[C@@H](O)CC[N+]6(C)C)CC5)c(Cl)c4)n3C)c(C(F)(F)F)n2)nc1` [Example E6, N-[3-chloro-4-[4-[(2S,3S)-3-hydroxy-1,1-dimethyl-pyrrolidin-1-ium-2-carbonyl]piperazine-1-carbonyl]phenyl]-1-methyl-5-[1-[5-(methylamino)-2-pyridyl]-3-(trifluoromethyl)pyrazol-4-yl]imidazole-2-carboxamide; formate]: the IC90 was 0.37 µM. With `CNc1ccc(-n2cc(-c3cnc(C(=O)Nc4ccc(C(=O)N5CCN(C(=O)C6CC[N+](C)(C)CC6)CC5)c(C)c4)n3C)c(C(F)(F)F)n2)nc1` [Example E7, N-[4-[4-(1,1-dimethylpiperidin-1-ium-4-carbonyl)piperazine-1-carbonyl]-3-methyl-phenyl]-1-methyl-5-[1-[5-(methylamino)-2-pyridyl]-3-(trifluoromethyl)pyrazol-4-yl]imidazole-2-carboxamide; formate], the IC90 is 0.33 µM.

Turning to `CNc1ccc(-n2cc(-c3cnc(C(=O)Nc4ccc(C(=O)N5CCN(C(=O)[C@@H]6CC[N+](C)(C)C[C@H]6O)CC5)c(Cl)c4)n3C)c(C(F)(F)F)n2)nc1` [Example E8, N-[3-chloro-4-[4-[(3S,4R)-3-hydroxy-1,1-dimethyl-piperidin-1-ium-4-carbonyl]piperazine-1-carbonyl]phenyl]-1-methyl-5-[1-[5-(methylamino)-2-pyridyl]-3-(trifluoromethyl)pyrazol-4-yl]imidazole-2-carboxamide; formate], the IC90 is 0.22 µM.

For the compound `Cn1c(-c2cn(-c3ccc(CO)cn3)nc2C(F)(F)F)cnc1C(=O)Nc1ccc(C(=O)N2CCN(C(=O)C3CC[N+](C)(C)CC3)CC2)c(Cl)c1` [Example F1, N-[3-Chloro-4-[4-(1,1-dimethylpiperidin-1-ium-4-carbonyl)piperazine-1-carbonyl]phenyl]-5-[1-[5-(hydroxymethyl)-2-pyridyl]-3-(trifluoromethyl)pyrazol-4-yl]-1-methyl-imidazole-2-carboxamide; formate], the IC90 turned out to be 0.39 µM. On the same count and under the same terms, next, `COCCOc1ccc(-n2cc(-c3cnc(C(=O)Nc4ccc(C(=O)N5CCN(C(=O)C6CC[N+](C)(C)CC6)CC5)c(Cl)c4)n3C)c(C(F)(F)F)n2)nc1` [Example G1, N-[3-Chloro-4-[4-(1,1-dimethylpiperidin-1-ium-4-carbonyl)piperazine-1-carbonyl]phenyl]-5-[1-[5-(2-methoxyethoxy)-2-pyridyl]-3-(trifluoromethyl)pyrazol-4-yl]-1-methyl-imidazole-2-carboxamide; formate]: 0.35 µM. On to `Cn1c(-c2cn(-c3ccc(N)cn3)nc2C(F)(F)F)cnc1C(=O)Nc1ccc(C(=O)N2CCC(C(=O)N3CC[N+](C)(C)CC3)CC2)c(Cl)c1` [Example H1, 5-[1-(5-Amino-2-pyridyl)-3-(trifluoromethyl)pyrazol-4-yl]-N-[3-chloro-4-[4-(4,4-dimethylpiperazin-4-ium-1-carbonyl)piperidine-1-carbonyl]phenyl]-1-methyl-imidazole-2-carboxamide; formate], for which the IC90 is 0.61 µM. Regarding `Cn1c(-c2cn(-c3ccc(N)cn3)nc2C#N)cnc1C(=O)Nc1ccc(C(=O)N2CCN(C(=O)C3CC[N+](C)(C)CC3)CC2)c(Cl)c1` [Example J2, 5-[1-(5-amino-2-pyridyl)-3-cyano-pyrazol-4-yl]-N-[3-chloro-4-[4-(1,1-dimethylpiperidin-1-ium-4-carbonyl)piperazine-1-carbonyl]phenyl]-1-methyl-imidazole-2-carboxamide; 2,2,2-trifluoroacetate], the IC90 was 9.83 µM. Turning to `Cc1nn(-c2ccc(N)cn2)cc1-c1cnc(C(=O)Nc2ccc(C(=O)N3CCN(C(=O)C4CC[N+](C)(C)CC4)CC3)c(Cl)c2)n1C` [Example J3, 5-[1-(5-amino-2-pyridyl)-3-methyl-pyrazol-4-yl]-N-[3-chloro-4-[4-(1,1-dimethylpiperidin-1-ium-4-carbonyl)piperazine-1-carbonyl]phenyl]-1-methyl-imidazole-2-carboxamide; formate], the IC90 is 10 µM. For the compound `Cc1c[nH]nc1-n1cc(-c2cnc(C(=O)Nc3ccc(C(=O)N4CCN(C(=O)C5CC[N+](C)(C)CC5)CC4)c(Cl)c3)n2C)c(C(F)(F)F)n1` [Example K2, N-[3-chloro-4-[4-(1,1-dimethylpiperidin-1-ium-4-carbonyl)piperazine-1-carbonyl]phenyl]-1-methyl-5-[1-(4-methyl-1H-pyrazol-3-yl)-3-(trifluoromethyl)pyrazol-4-yl]imidazole-2-carboxamide; 2,2,2-trifluoroacetate], the IC90 is 4.36 µM.

Staying with this test, now noted: Acinetobacter baumannii, ATCC17961, 16 h, read-out: ATCC 17961 IC90.
As to `CNc1ccc(-n2cc(-c3cnc(C(=O)Nc4ccc(C(=O)N5CCN(C(=O)C6CC[N+](C)(C)CC6)CC5)c(Cl)c4)n3C)c(C(F)(F)F)n2)nc1` [Example E1, N-[3-Chloro-4-[4-(1,1-dimethylpiperidin-1-ium-4-carbonyl)piperazine-1-carbonyl]phenyl]-1-methyl-5-[1-[5-(methylamino)-2-pyridyl]-3-(trifluoromethyl)pyrazol-4-yl]imidazole-2-carboxamide; formate], the IC90 stood at 0.1 µM. On the same count and under the same terms, the figure for `Cn1c(-c2cn(-c3ccc(N)nn3)nc2C(F)(F)F)cnc1C(=O)Nc1ccc(C(=O)N2CCN(C(=O)C3CC[N+](C)(C)CC3)CC2)c(Cl)c1` [Example K1, 5-[1-(6-Aminopyridazin-3-yl)-3-(trifluoromethyl)pyrazol-4-yl]-N-[3-chloro-4-[4-(1,1-dimethylpiperidin-1-ium-4-carbonyl)piperazine-1-carbonyl]phenyl]-1-methyl-imidazole-2-carboxamide; 2,2,2-trifluoroacetate] is 1.6 µM.

For the origin of these results see US12655126B2, “Imidazole-pyrazole derivatives as antibacterials” (Hoffmann-La Roche Inc., priority 2020, dated 2026).
